Where two headings read alike, the source gives them in different places.
What was measured:
[1] = tested on: eyes of New Zealand white rabbits; conditions: for PVD observations by OCT: OD
Experimental: Five female New Zealand White rabbits were given a single administration of urea solution IVT into both eyes (OU) at doses of 2.5, 5, 10, 25 and 50 mg/eye.
Prior to placement in the study, each animal underwent an ophthalmic examination (slit-lamp biomicroscopy and indirect ophthalmoscopy). Ocular findings were scored according to a modified McDonald-Shadduck Scoring System. The acceptance criteria for placement on study were scores of “0” for all variables.
All procedures were performed using sterile technique. Animals were anesthetized for IVT injections, OCT, and B-Scan imaging with an IM injection of ketamine hydrochloride (50 mg/kg for imaging, 15-30 mg/kg for IVT injections) and xylazine (5 mg/kg). For one animal, anesthesia was prolonged via inhaled isoflurane (1-1.5% in 1.5-2 L/min oxygen) during baseline imaging due to extended duration of imaging. For another animal, inhaled isoflurane (2% in 1.5 L/min oxygen) was used to anesthetize the animal for IVT injections, because the animal had undergone baseline imaging (which included ketamine/xylazine anesthesia) earlier in the same day. One to two drops of topical proparacaine hydrochloride anesthetic (0.5%) were applied to the animal's eyes prior to the surgical procedure.
Prior to IVT injection, eyes were cleaned with Betadine and then rinsed with BSS. Using a ⅝ inch needle, injections were made 3 to 4 mm away from the limbus. Once the needle had been inserted, urea solution or BSS was injected. The needle was removed and the eye rinsed with BSS. Animals were recovered immediately after dosing and monitored during recovery. Triple antibiotic ophthalmic ointment was administered to the eyes during recovery.
Animals were euthanized on Day 35 (±4) and their eyes (whole globe) were collected and submitted for histopathological analysis.
Ophthalmic examinations (slit-lamp biomicroscopy and indirect ophthalmoscopy) were performed on Days −3 or 0 (baseline prior to test/control article administration), 1, 4, 7 or 8, 14, 21, and 35. Day 4 examinations were performed at the beginning of the workday. Day 21 examinations were performed only on Groups 1, 2, and 5. Ocular findings were scored according to a modified McDonald-Shadduck Scoring System. […] Observations included assessment of the development and time course of PVD.
Images of the fundus were taken on Days −3 or 0 (baseline prior to drug or BSS administration), 1, 4, 7 or 8, 14, 21, and 35. Day 4 images were taken at the beginning of the workday. Day 21 images were taken only of Groups 1, 2, and 5. Animals were not anesthetized for imaging.
OCT was performed on Days −3 or 0 (baseline prior to test/control article administration), 1, 4, 7 or 8, 14, 21, and 35. Day 4 images were taken at the beginning of the workday. Day 21 images were taken only of Groups 1, 2, and 5. Animals were anesthetized as described above. A total of 8 images per rabbit per day was acquired.
B-Scan ultrasound images were taken on Days −3 or 0 (baseline prior to test/control article administration) and on Day 35.

[2] = tested on: eyes of New Zealand white rabbits
Text: Female New Zealand white rabbits were obtained from Western Oregon Rabbit Co. (Philomath, Oreg.) and were housed and cared for in compliance with the regulations of the USDA Animal Welfare Act and under the review and approval of the institution's Animal Care and Use Committee.
Prior to placement on study, each animal underwent an ophthalmic examination (slit-lamp biomicroscopy and indirect ophthalmoscopy). […] The acceptance criteria for placement on study were scores of “0” for all variables.
Six female New Zealand White rabbits (two per subgroup) were administered urea-encapsulated liposome constructs (58 mol % DOPC, 42 mol % cholesterol) intravitreally (IVT) as a single dose into both eyes (OU). Animals were anesthetized with an intramuscular (IM) injection of ketamine hydrochloride (30 mg/kg), xylazine (5 mg/kg), and acepromazine (3 mg/kg) followed by isoflurane by inhalation (1-2.5%) in oxygen (1 L/min). One to two drops of topical proparacaine hydrochloride anesthetic (0.5%) were applied to the animal's eyes prior to the surgical procedure. Animals were kept anesthetized with their heads stabilized for three hours post dose, with one eye facing up and the other eye facing down.
After three hours, a clinical ophthalmic examination was performed, animals were euthanized. Vitreous humor (VH) was collected as 3 fractions. Pupils were dilated using one drop each of 10% phenylephrine and 1% tropicamide. Two 18G needles were inserted into the eye at the 3 o'clock and 9 o'clock position and advanced into the VH, one with the bevel pointed up towards the lens and the other with the bevel pointed down toward the retina. Three hundred μL of VH were drawn up through each needle, after which each needle was removed from the eye. The eye was then harvested and enucleated. Following enucleation, the remaining VH was collected as the third fraction. Samples from each eye in each animal remained separate and were not pooled. The weight of ocular tissues was recorded. Individual VH fractions were weighed separately. VH fractions were centrifuged at 16,100×g at room temperature for 20-30 minutes. The supernatant was separated. Pellets containing liposome constructs and supernatant were snap frozen separately on dry ice and stored at −60 to −80° C. Retina was also collected from these animals, snap frozen on dry ice, and stored at −60 to −80° C.
Two additional animals (one per subgroup) were administered a single or double dose of free urea solution IVT into the right eye (OD) and balanced salt solution (BSS) into the left eye (OS). Animals were anesthetized with an IM injection of ketamine hydrochloride (30 mg/kg) and xylazine (5 mg/kg). One to two drops of topical proparacaine hydrochloride anesthetic (0.5%) were applied to the animal's eyes prior to the surgical procedure.
Clinical ophthalmic examinations, fundus photography, and optical coherence tomography (OCT) were performed in these animals on Days 0-3, 4 (AM and PM), 8 (±1), 14, 21, and 28 post dose. For OCT, pupils were dilated with one drop each of 10% phenylephrine and 1% tropicamide approximately 10-15 minutes prior to imaging. Images were taken using the Spectralis® instrumentation (Heidelberg Engineering, Inc., Heidelberg, Germany).

NC(N)=O [urea, Urea]
PVD in clinical ophthalmic examinations ([1]; 2.5-50 mg/eye IVT, up to Day 35): No evidence of PVD | PVD observations by OCT ([1]; Group 1, 5 mg urea IVT): Partial PVD on Day 35 | PVD observations by OCT ([1]; Group 2, 10 mg urea IVT): Partial PVD on Day 7 and beyond | PVD in B-scan images, Day 35 ([1]; Group 4, 50 mg/eye): evidence of PVD in the right eye (OD) | PVD observations by OCT ([1]; Group 5, 2.5 mg urea IVT): Possible partial PVD on Day 4, none observed | PVD in B-scan images, Day 35 ([1]; other animals (2.5, 5, 10, 25 mg/eye)): no PVD could be detected | vitreous clouding (fundus photography) ([2]; 96 and 192 mg/eye IVT, OD): clouding of the OD vitreous from Day 0 through Day 3 | toxicity from Day 3 onward (fundus imaging) ([2]; 96 and 192 mg/eye IVT, OD, at the site of delivery, peaked Days 3-7): severe retinal folding and vascular hemorrhage | retinal detachment (OCT) ([2]; 96 and 192 mg/eye IVT, peaked between Days 3 and 7, then subsided): retina had detached mostly at the ganglion cell layer | days on which OCT imaging showed PVD ([2]; Subgroup 2a, 96 mg/eye IVT, OD): Day 3 | days on which OCT imaging showed PVD ([2]; Subgroup 2b, 192 mg/eye IVT, OD): Days 4 (AM and PM), 7, and 14 | time to development of PVD ([2]; free urea 96 mg/eye (single dose) or 192 mg/eye (double dose) IVT, OD): ≤ 2 days | ocular irritation and swelling after IVT injection ([2]; immediately after IVT injection, resolved over the next few days in surviving animals): ocular irritation and swelling were observed | adverse effects on body weights and general health ([2]; single IVT dosing, liposome constructs 56-96 mg total urea/eye, free urea 96 or 192 mg/eye): No adverse effects on body weights and no severe adverse effects on general health
